# Laboratory results from US20240058464A1 (Fortis Therapeutics, Inc., priority 2021, published 2024).
# Experiments:
# CD46 expression [1] = assay: CD46 expression by RNA-sequencing in unpaired pre-treatment and post-treatment tumor biopsies; format: in vivo, human; settings: for CD46 expression Post: post-treatment biopsies
# CD46 expression [2] = assay: CD46 expression by RNA-sequencing in paired tumor biopsies before and after therapy; settings: paired biopsies; for CD46 expression, Post-Treatment Biopsy / CD46 expression, Pre-Treatment Biopsy: RNA-seq log2-transformed counts;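 for all read-outs here: FFPE human tumor biopsies, exome-capture RNA-seq, reads aligned to GRCh37, counts normalized for GC content, length and depth, summed per gene, log2-transformed, samples paired before versus after therapy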
# [3] = Breast Cancer, Post minus Pre, unpaired biopsies, log2-transformed counts
# [4] = Breast Cancer, post- vs pre-treatment unpaired biopsies
# [5] = Breast Cancer, unpaired, RNA-seq log2-transformed normalized counts
# [6] = Colorectal Cancer, Post minus Pre, unpaired biopsies, log2-transformed counts
# [7] = Colorectal Cancer, post- vs pre-treatment unpaired biopsies
# [8] = Colorectal Cancer, unpaired, RNA-seq log2-transformed normalized counts
# [9] = Non-Small Cell Lung Cancer, Post minus Pre, unpaired biopsies, log2-transformed counts
# [10] = Non-Small Cell Lung Cancer, post- vs pre-treatment unpaired biopsies
# [11] = Non-Small Cell Lung Cancer, unpaired, RNA-seq log2-transformed normalized counts
# [12] = Clear Cell Renal Cell Carcinoma, Post minus Pre, unpaired biopsies, log2-transformed counts
# [13] = Clear Cell Renal Cell Carcinoma, post- vs pre-treatment unpaired biopsies
# [14] = Clear Cell Renal Cell Carcinoma, unpaired, RNA-seq log2-transformed normalized counts
# [15] = Melanoma, Post minus Pre, unpaired biopsies, log2-transformed counts
# [16] = Melanoma, post- vs pre-treatment unpaired biopsies
# [17] = Melanoma, unpaired, RNA-seq log2-transformed normalized counts
Substance,CD46 expression diff (CD46 expression [1]; [3]),CD46 expression Percentage change (CD46 expression [1]; [4]),CD46 expression Post (CD46 expression [1]; [5]),CD46 expression diff (CD46 expression [1]; [6]),CD46 expression Percentage change (CD46 expression [1]; [7]),CD46 expression Post (CD46 expression [1]; [8]),CD46 expression diff (CD46 expression [1]; [9]),CD46 expression Percentage change (CD46 expression [1]; [10]),CD46 expression Post (CD46 expression [1]; [11]),CD46 expression diff (post minus pre) (CD46 expression [2]; Colorectal Cancer),Percent Change in CD46 expression (CD46 expression [2]; Colorectal Cancer),"CD46 expression, Post-Treatment Biopsy (CD46 expression [2]; Colorectal Cancer)","CD46 expression, Pre-Treatment Biopsy (CD46 expression [2]; Colorectal Cancer)",CD46 expression diff (CD46 expression [1]; [15]),CD46 expression Percentage change (CD46 expression [1]; [16]),CD46 expression Post (CD46 expression [1]; [17]),CD46 expression diff (post minus pre) (CD46 expression [2]; Melanoma),Percent Change in CD46 expression (CD46 expression [2]; Melanoma),"CD46 expression, Post-Treatment Biopsy (CD46 expression [2]; Melanoma)","CD46 expression, Pre-Treatment Biopsy (CD46 expression [2]; Melanoma)",other results
bevacizumab,0.33,5.4%,6.34,0.11,1.7%,6.53,−0.11,−1.8%,6.25,0.08,1.3%,6.33,6.25,–,–,–,–,–,–,–,"CD46 expression diff (CD46 expression [1]; Endometrial Cancer, post minus pre, unpaired biopsies): −0.26; CD46 expression Percentage change (CD46 expression [1]; Endometrial Cancer, post vs pre, unpaired biopsies): −4.4%; CD46 expression Post (CD46 expression [1]; Endometrial Cancer, log2-transformed RNA-seq counts): 5.56; CD46 expression Pre (CD46 expression [1]; Endometrial Cancer, pre-treatment biopsies, log2-transformed RNA-seq counts): 5.81; CD46 expression diff (CD46 expression [1]; Glioblastoma, Post minus Pre, unpaired biopsies, log2-transformed counts): −0.02; CD46 expression Percentage change (CD46 expression [1]; Glioblastoma, post- vs pre-treatment unpaired biopsies): −0.4%; CD46 expression Post (CD46 expression [1]; Glioblastoma, unpaired, RNA-seq log2-transformed normalized counts): 4.79; CD46 expression diff (CD46 expression [1]; Ovarian Cancer, Post minus Pre, unpaired biopsies, log2-transformed counts): 0.03; CD46 expression Percentage change (CD46 expression [1]; Ovarian Cancer, post- vs pre-treatment unpaired biopsies): 0.5%; CD46 expression Post (CD46 expression [1]; Ovarian Cancer, unpaired, RNA-seq log2-transformed normalized counts): 5.75; CD46 expression diff (post minus pre) (CD46 expression [2]; Glioblastoma): 0.06; Percent Change in CD46 expression (CD46 expression [2]; Glioblastoma): 1.3%; CD46 expression, Post-Treatment Biopsy (CD46 expression [2]; Glioblastoma): 4.64; CD46 expression, Pre-Treatment Biopsy (CD46 expression [2]; Glioblastoma): 4.58; CD46 expression diff (post minus pre) (CD46 expression [2]; Ovarian Cancer): −0.11; Percent Change in CD46 expression (CD46 expression [2]; Ovarian Cancer): −1.9%; CD46 expression, Post-Treatment Biopsy (CD46 expression [2]; Ovarian Cancer): 5.54; CD46 expression, Pre-Treatment Biopsy (CD46 expression [2]; Ovarian Cancer): 5.65"
durvalumab,–,–,–,–,–,–,−0.03,−0.5%,6.04,–,–,–,–,–,–,–,–,–,–,–,"CD46 expression diff (post minus pre) (CD46 expression [2]; Non-Small Cell Lung Cancer): 0.00; Percent Change in CD46 expression (CD46 expression [2]; Non-Small Cell Lung Cancer): 0.0%; CD46 expression, Post-Treatment Biopsy (CD46 expression [2]; Non-Small Cell Lung Cancer): 5.95; CD46 expression, Pre-Treatment Biopsy (CD46 expression [2]; Non-Small Cell Lung Cancer): 5.95"
ipilimumab,–,–,–,–,–,–,–,–,–,–,–,–,–,−0.06,−1.1%,5.30,−0.06,−1.1%,5.26,5.31,CD46 expression diff (CD46 expression [1]; [12]): −0.08; CD46 expression Percentage change (CD46 expression [1]; [13]): −1.4%; CD46 expression Post (CD46 expression [1]; [14]): 5.48
nivolumab,–,–,–,–,–,–,−0.09,−1.5%,6.11,–,–,–,–,−0.02,−0.5%,5.31,−0.04,−0.7%,5.26,5.29,CD46 expression diff (CD46 expression [1]; [12]): −0.06; CD46 expression Percentage change (CD46 expression [1]; [13]): −1.1%; CD46 expression Post (CD46 expression [1]; [14]): 5.50
panitumumab,–,–,–,0.28,4.4%,6.64,–,–,–,−0.10,−1.4%,6.62,6.71,–,–,–,–,–,–,–,–
pembrolizumab,−0.13,−2.2%,5.95,0.30,4.8%,6.50,−0.05,−0.7%,–,–,–,–,–,0.00,0.0%,5.30,0.03,0.6%,5.25,5.22,"CD46 expression diff (CD46 expression [1]; Bladder Cancer, Post minus Pre, unpaired biopsies, log2-transformed counts): 0.06; CD46 expression Percentage change (CD46 expression [1]; Bladder Cancer, post- vs pre-treatment unpaired biopsies): 0.9%; CD46 expression Post (CD46 expression [1]; Bladder Cancer, unpaired, RNA-seq log2-transformed normalized counts): 6.18; CD46 expression diff (CD46 expression [1]; Esophageal Cancer, Post minus Pre, unpaired biopsies, log2-transformed counts): 0.09; CD46 expression Percentage change (CD46 expression [1]; Esophageal Cancer, post- vs pre-treatment unpaired biopsies): 1.4%; CD46 expression Post (CD46 expression [1]; Esophageal Cancer, unpaired, RNA-seq log2-transformed normalized counts): 6.01; CD46 expression diff (CD46 expression [1]; Head and Neck Squamous Cell Carcinoma, Post minus Pre, unpaired biopsies, log2-transformed counts): 0.17; CD46 expression Percentage change (CD46 expression [1]; Head and Neck Squamous Cell Carcinoma, post- vs pre-treatment unpaired biopsies): 3.1%; CD46 expression Post (CD46 expression [1]; Head and Neck Squamous Cell Carcinoma, unpaired, RNA-seq log2-transformed normalized counts): 5.76; CD46 expression diff (post minus pre) (CD46 expression [2]; Breast Cancer): −0.11; Percent Change in CD46 expression (CD46 expression [2]; Breast Cancer): −1.7%; CD46 expression, Pre-Treatment Biopsy (CD46 expression [2]; Breast Cancer): 6.28; CD46 expression diff (post minus pre) (CD46 expression [2]; Non-Small Cell Lung Cancer): −0.24; Percent Change in CD46 expression (CD46 expression [2]; Non-Small Cell Lung Cancer): −3.8%; CD46 expression, Post-Treatment Biopsy (CD46 expression [2]; Non-Small Cell Lung Cancer): 6.00; CD46 expression, Pre-Treatment Biopsy (CD46 expression [2]; Non-Small Cell Lung Cancer): 6.23"
